From patent US10874638B2, “Methods and compositions for modulating hormone levels” (priority 2014, dated 2020) come the findings set out here.

In data set [1] the test system is ovariectomized mature female rats. In words: Ovariectomized mature female rat model. The class given is in vivo. The protocol:
Ovariectomized mature female rats are used to characterize primarily bone activity of the compositions provided herein or the individual SERM or SARM compounds. A sham group is used as control. The model can be run in either maintenance mode where the animals are dosed one day after the ovariectomy or restoration mode where the animals are dosed seven to eight weeks after the surgery. The rats are scanned by dual energy x-ray absorptiometry and sorted into experimental groups based upon femoral bone mineral content (BMC). Three dosages of testing compositions/compounds are administered orally once a day for 4, 8, or 12 weeks and estradiol and testosterone are administered subcutaneously to the reference groups. Animals received subcutaneous injections of fluorochrome markers for bone histomorphometric analysis. Alizarian Red S was prepared as a 3% solution and given at a dose of 30 mg/kg at the time of the baseline scan. Calcein was administered 10 days and 3 days prior to necropsy.
Approximately 24 hours after the last dose, blood is collected and the gastrocnemius muscle, plantaris muscle, uterus, clitoral glands, clitoris and inguinal fat pads were isolated, blotted and weighed individually. The left femur and lumbar vertebra L5 are wrapped in saline-soaked gauze and stored at −20° C. for biochemical analysis. The right femur and lumbar vertebrae L3-L4 are collected and stored in 70% ethanol for histomorphometry. The right tibia is collected in formalin for histological analysis. The left tibia is collected on dry ice and stored at −20° C. for measurement of alkaline phosphatase activity.
BMC, bone mineral density (BMD) and bone length are measured by pDEXA on an entire femur. The coefficient of variation for repeated measurement of the isolated femur is less than 0.4% for the BMC and the BMD measurements. […] Serum osteocalcin, a marker for bone turnover, and alkaline phosphatase derived from the tibial periosteum are also measured. Whole femurs are collected for biomechanical analysis and thawed at room temperature prior to testing. Peak load and peak displacement are measured directly from the load cell and the crosshead, respectively. Stiffness is calculated from the slope of the linear region of the load/displacement curve. Lumbar vertebra L5 is also measured in the mechanical testing for bone strength.
Bone histomorphometry is performed to indicate growth of the new bone during the study. The section from the lumbar vertebral bodies is used for histomorphometric indices of cancellous bone, while the sections of the femur mid-shafts are used for histomorphometric indices of cortical bone.
Body weight, gastrocnemius weight and plantaris weight changes are measured indicating anabolic activity of the testing compositions/compounds on skeletal muscle. Inguinal fat pad weight is used as a representative fat pad to assess the effects of the testing compounds on body fat. Clitoral gland and clitoral weights are measured to assess the virilizing effect of drugs.
In the maintenance node of this model, (5R,6S)-6-phenyl-5-[4-(2-pyrrolidin-1-ylethoxy)phenyl]-5,6,7,8-tetrahydronaphthalen-2-ol (Compound 1) was dosed daily at 0 (sham), 0 (OVX), 0.01, 0.05, and 0.25 mg/kg for 8 weeks and 17α-ethynylestradiol was dosed at 0.03 mg/kg/day. […] Micro-computerized tomography (uCT) measured the density and connectivity of the trabecular bone in the femur and pQCT measured at the distal femur.
In the restoration mode of this osteopenic female rat model, 4-(2(R)-(1(S)-hydroxyl-2,2,2-trifluoroethyl)-pyrrolidinyl)-2-trifluoromethylbenzonitrile (Compound 2, Formula I, R^1═CF3, R^2═R^3═H) was dosed at 0 (sham), 0 (OVX), 0.03, 0.3, and 3 mg/kg orally for 12 weeks. […] Compound 2 suppressed cancellous bone turnover while increasing trabecular bone volume and increasing bone mineral density at the lumbar spine.
In the same experiment of Compound 2, another SARM compound, ostarine, was dosed at 0.03, 0.3, and 3 mg/kg/day orally for 12 weeks.

Data set [2] deals with orchidectomized male Sprague-Dawley rat. The data set can be described thus: Orchidectomized mature male rat model. The note with it: based on AUC-activity relationship analysis.
The mark [3] stands for this setting: OVX rat, subcutaneous reference.

Regarding 17α-ethynylestradiol, the “uterine wet weight decrease after OVX surgery” value in data set [1] (maintenance mode, daily for 8 weeks, Compound 1 0.01, 0.05, 0.25 mg/kg (all doses), 17α-ethynylestradiol 0.03 mg/kg/day) was “completely blocked”. Moreover, the “bone density decrease caused by OVX (uCT trabecular bone in the femur, pQCT distal femur)” value in data set [1] (maintenance mode, daily for 8 weeks, Compound 1 0.01, 0.05, 0.25 mg/kg, 17α-ethynylestradiol 0.03 mg/kg/day) is on record as “prevent the bone density decrease”. As to `CCC(=O)O[C@H]1CC[C@H]2[C@@H]3CCC4=CC(=O)CC[C@]4(C)[C@H]3CC[C@]12C` [Testosterone propionate], the “clitoral gland and clitoral weights (virilizing effect)” value in data set [1] (OVX rat, 1 mg/kg daily dose) is “significantly increases”. `C[C@]12CC[C@H]3[C@@H](CCC4=CC(=O)CC[C@@]43C)[C@@H]1CC[C@@H]2O` [Testosterone, testosterone]: in data set [1] (setting [3]), the femur bending stiffness entry is listed as “increases” and the femur bending strength entry is reported as “does not significantly increase”. Turning to `C[C@](O)(COc1ccc(C#N)cc1)C(=O)Nc1ccc(C#N)c(C(F)(F)F)c1` [ostarine], the “exposure at maximal efficacy relative to Compound 2” value in data set [1] (restoration mode, higher exposure = decreased potency) is around 10 fold. The “potency relative to Compound 2 (fold less)” value in data set [2] is around 10 fold.
